Experimental data: paper PMC11898563 (2025)

Tests used:
[1] = tested on: MST-DA-1 (DNA, aptamer) ATAGGAGTCACGACGACCAGAAAAATAATTTAAATTTTCTACCCAATGCTTTTCGCATAATATGTGCGTCTACCTCTTGA; assay: microscale thermophoresis; conditions: 150 mM NaCl, 2 mM MgCl2; 50 mM Tris, pH 7.4, room temperature
[2] = tested on: MST-OA-2 (DNA, aptamer) ATTTGACCATGTCGAGGGAGACGCGCAGTCGCTACCACCT; assay: microscale thermophoresis; conditions: 150 mM NaCl, 2 mM MgCl2; 50 mM Tris, pH 7.4, room temperature
[3] = tested on: MST-OA-1 (DNA, aptamer) GGTCACCAACAACAGGGAGCGCTACGCGAAGGGTCAATGTGACGTCATGCGGATGTGTGG; assay: microscale thermophoresis; conditions: 150 mM NaCl, 2 mM MgCl2; 50 mM Tris, pH 7.5, room temperature
[4] = tested on: OA-2 (DNA, aptamer) ATTTGACCATGTCGAGGGAGACGCGCAGTCGCTACCACCT; assay: AuNP aggregation colorimetry; conditions: NaCl added (100 mmol L^−1 stock); 1 μmol L^−1 aptamer, room temperature
[5] = tested on: FRET-OA-1 (DNA, aptamer) GGTCACCAACAACAGGGAGCGCTACGCGAAGGGTCAATGTGACGTCATGCGGATGTGTGG; assay: fluorescence (FAM/BHQ-1 FRET) titration; conditions: 150 mM NaCl, 2 mM MgCl2; 50 mM Tris, pH 7.5, 37 °C, 500 nM aptamer; exact value in Figure 1C
[6] = tested on: FRET-OA-2 (DNA, aptamer) ATTTGACCATGTCGAGGGAGACGCGCAGTCGCTACCACCT; assay: fluorescence (FAM/BHQ-1 FRET) titration; conditions: 150 mM NaCl, 2 mM MgCl2; 50 mM Tris, pH 7.4, 37 °C, 500 nM aptamer; exact value in Figure 1D
[7] = tested on: APT-mid-BHQ1 (DNA, aptamer, internal BHQ1-dT at 29) ATTTGACCATGTCGAGGGAGACGCGCAGTCGCTACCACCT; assay: strand-displacement fluorescence (duplexed FRET); conditions: FAM-11nt-C strand displaced; 1 h after OA addition

Kd [1]	Kd [2]	Kd [3]	binding [4]	Kd [5]	Kd [6]	binding [7]	SMILES
1180 ± 2030 nM							C/C(=C/C=C/[C@@H](C)C(=O)O)[C@H]1CN[C@H](C(=O)O)[C@H]1CC(=O)O
	257.25 ± 90.25 nM	1260 ± 560 nM	yes	< 800 nM	< 800 nM	yes	C=C1[C@@H](O)[C@@H]2O[C@]3(CC[C@H](/C=C/[C@@H](C)[C@@H]4CC(C)=C[C@@]5(O[C@H](C[C@@](C)(O)C(=O)O)CC[C@H]5O)O4)O3)CC[C@H]2O[C@@H]1[C@@H](O)C[C@H](C)[C@H]1O[C@@]2(CCCCO2)CC[C@H]1C
